# US20250197393A1, “INTEGRIN INHIBITOR AND USES THEREOF” (Pliant Therapeutics, Inc., priority 2023, published 2025)
# Experiments:
# Assay type in all cases: physicochemical
# [1] = Hygroscopicity by dynamic vapor sorption (DVS)
# Protocol: Dynamic vapor sorption of Pattern A was studied using a Surface Measurement Systems (SMS) Intrinsic instrument. Total gas flow was 200 sccm. The oven temperature was 25° C. Water was used as the solvent, in a cycle of 40-95-0-95-40% RH. The stage step was 10% RH and equilibrium was within 0.002 dm/dt (%/min) (minimum dm/dt stability duration: 60 min; maximum dm/dt stage time: 360 min). The sample mass was about 5-50 mg.
# The water sorption and desorption behavior of (S)-4-((2-methoxyethyl)(4-(5,6,7,8-tetrahydro-1,8-naphthyridin-2-yl)butyl)amino)-2-(quinazolin-4-ylamino)butanoic acid L-tartaric acid cocrystal Pattern A was investigated by DVS at 25° C. with a cycle of 40-95-0-95-40% RH. XRPD was measured after the DVS test to determine form change. […] It dehydrated in 10% RH and below.
# [2] = Wet granulation simulation
# Protocol: Water or ethanol was added dropwise to about 20 mg of (S)-4-((2-methoxyethyl)(4-(5,6,7,8-tetrahydro-1,8-naphthyridin-2-yl)butyl)amino)-2-(quinazolin-4-ylamino)butanoic acid L-tartaric acid cocrystal Pattern A until the sample was wetted sufficiently. The wet sample was ground gently using a mortar and pestle. Post granulation sample was dried under ambient conditions for 30 min. The potential form change and degree of crystallinity were evaluated by XRPD.
# [3] = Bulk stability of solid under temperature/humidity stress (HPLC, appearance, XRPD); conditions: 40° C./75% RH in an open container, 4 weeks; listed as L-tartaric acid cocrystal Pattern A
# [4] = Water activity experiments in MeOH/water (relative stability of hydrate Pattern A and hydrate Pattern B); conditions: for water activity (a.w.) at which the pattern was obtained: methanol/water
# Protocol: The relative stability of the hydrate Pattern A and the hydrate Pattern B was investigated using water activity experiments in MeOH/water systems. About 5 mg of (S)-4-((2-methoxyethyl)(4-(5,6,7,8-tetrahydro-1,8-naphthyridin-2-yl)butyl)amino)-2-(quinazolin-4-ylamino)butanoic acid L-tartaric acid cocrystal Pattern A and 5 mg of (S)-4-((2-methoxyethyl)(4-(5,6,7,8-tetrahydro-1,8-naphthyridin-2-yl)butyl)amino)-2-(quinazolin-4-ylamino)butanoic acid L-tartaric acid cocrystal Pattern B were added to 0.1-0.5 mL saturated solutions of the methanol/water system. Obtained suspensions were stirred at 5° C., 25° C. and 50° C. for up to 21 days, respectively. Solid parts (wet cakes) were isolated by centrifugation filtration and investigated by XRPD.
# [5] = Dry grinding; conditions: ground manually with mortar and pestle for 3 min
# Protocol: About 20 mg of (S)-4-((2-methoxyethyl)(4-(5,6,7,8-tetrahydro-1,8-naphthyridin-2-yl)butyl)amino)-2-(quinazolin-4-ylamino)butanoic acid L-tartaric acid cocrystal Pattern A was ground manually with a mortar and a pestle for 3 min. Potential form change and degree of crystallinity were evaluated by XRPD.
# [6] = Bulk stability of solid under temperature/humidity stress (HPLC, appearance, XRPD); conditions: for purity decrease: listed as L-tartaric acid cocrystal Pattern A; for Bulk (XRPD) / Bulk (HPLC) purity, 316 nm: Solid state
# Protocol: Bulk stability of (S)-4-((2-methoxyethyl)(4-(5,6,7,8-tetrahydro-1,8-naphthyridin-2-yl)butyl)amino)-2-(quinazolin-4-ylamino)butanoic acid L-tartaric acid cocrystal Pattern A was evaluated at 25° C./92.5% RH in an open container, at 40° C./75% RH in an open container, and at 60° C. in a closed container over 1 week and 4 weeks.
# However, it became deliquescent after being stressed at 25° C./92.5% RH in an open container and at 40° C./75% RH in an open container after 1 week.
# [7] = VT-XRPD heating experiment; conditions: heated to 110° C. under dry nitrogen flow for about 30 min, then cooled to ambient (20-26° C., 20%-35% RH)
# Protocol: The dried(S)-4-((2-methoxyethyl)(4-(5,6,7,8-tetrahydro-1,8-naphthyridin-2-yl)butyl)amino)-2-(quinazolin-4-ylamino)butanoic acid L-tartaric acid cocrystal Pattern A was also investigated by VT-XRPD experiments. The(S)-4-((2-methoxyethyl)(4-(5,6,7,8-tetrahydro-1,8-naphthyridin-2-yl)butyl)amino)-2-(quinazolin-4-ylamino)butanoic acid L-tartaric acid cocrystal Pattern A was heated to 110° C. under dry nitrogen flow for about 30 min and then cooled to ambient condition (20-26° C., 20%-35% RH). The obtained solid parts were investigated by XRPD.
# [8] = 10% relative humidity at 25° C.
# [9] = 20% relative humidity at 25° C.
# [10] = 30% relative humidity at 25° C.
# [11] = 40% relative humidity at 25° C.
# [12] = 50% relative humidity at 25° C.
# [13] = 60% relative humidity at 25° C.
# [14] = 70% relative humidity at 25° C.
# [15] = 80% relative humidity at 25° C.
# [16] = 90% relative humidity at 25° C.
# [17] = 95% relative humidity at 25° C.
# [18] = 40° C./75% RH, open container, 4 weeks
# [19] = 60° C., closed container, 4 weeks, listed as L-Tartaric acid cocrystal Pattern A, hydrate
compound,measurement,setting,value
"COCCN(CCCCc1ccc2c(n1)NCCC2)CC[C@H](Nc1ncnc2ccccc12)C(=O)O [Pattern A, (S)-4-((2-methoxyethyl)(4-(5,6,7,8-tetrahydro-1,8-naphthyridin-2-yl)butyl)amino)-2-(quinazolin-4-ylamino)butanoic acid]",1st desorp. Weight % change,[1]; 0% relative humidity at 25° C.,0.0%
same,2nd sorp. Weight % change,[1]; 0% relative humidity at 25° C.,0.0%
same,1st desorp. Weight % change,[1]; [8],5.2%
same,2nd sorp. Weight % change,[1]; [8],4.7%
same,1st desorp. Weight % change,[1]; [9],7.4%
same,2nd sorp. Weight % change,[1]; [9],7.1%
same,1st desorp. Weight % change,[1]; [10],8.3%
same,2nd sorp. Weight % change,[1]; [10],8.0%
same,1st desorp. Weight % change,[1]; [11],8.9%
same,1st sorp. Weight % change,[1]; [11],8.5%
same,2nd desorp. Weight % change,[1]; [11],8.9%
same,2nd sorp. Weight % change,[1]; [11],8.7%
same,1st desorp. Weight % change,[1]; [12],9.4%
same,1st sorp. Weight % change,[1]; [12],9.0%
same,2nd desorp. Weight % change,[1]; [12],9.4%
same,2nd sorp. Weight % change,[1]; [12],9.2%
same,1st desorp. Weight % change,[1]; [13],9.8%
same,1st sorp. Weight % change,[1]; [13],9.6%
same,2nd desorp. Weight % change,[1]; [13],9.9%
same,2nd sorp. Weight % change,[1]; [13],9.7%
same,1st desorp. Weight % change,[1]; [14],10.4%
same,1st sorp. Weight % change,[1]; [14],10.1%
same,2nd desorp. Weight % change,[1]; [14],10.4%
same,2nd sorp. Weight % change,[1]; [14],10.2%
same,1st desorp. Weight % change,[1]; [15],11.1%
same,1st sorp. Weight % change,[1]; [15],10.7%
same,2nd desorp. Weight % change,[1]; [15],11.1%
same,2nd sorp. Weight % change,[1]; [15],10.9%
same,1st desorp. Weight % change,[1]; [16],12.6%
same,1st sorp. Weight % change,[1]; [16],12.2%
same,2nd desorp. Weight % change,[1]; [16],12.6%
same,2nd sorp. Weight % change,[1]; [16],12.1%
same,1st desorp. Weight % change,[1]; [17],18.7%
same,1st sorp. Weight % change,[1]; [17],18.7%
same,2nd desorp. Weight % change,[1]; [17],16.1%
same,2nd sorp. Weight % change,[1]; [17],16.1%
same,XRPD following the DVS experiments,"[1]; after cycle 40-95-0-95-40% RH, 25° C.",no form change
same,hygroscopicity,"[1]; at 70% RH and below, 25° C.",slightly hygroscopic
same,water uptake,"[1]; from 40% RH to 70% RH, 25° C.",about 1.6%
same,water uptake,"[1]; from 80% RH to 95% RH, 25° C.",about 8.0%
same,behaviour at low humidity,"[1]; in 10% RH and below, 25° C.",dehydrated
same,hygroscopicity,"[1]; in 80% RH and above, 25° C.",moderately hygroscopic
same,water loss on dehydration,"[1]; relative humidity below 10% RH, water absorbed back at 10% RH and above",about 5%
same,XRPD after wet granulation,[2]; Granulation solvent Ethanol,Pattern A
same,Comments (crystallinity after wet granulation),[2]; Granulation solvent Water,Slight decrease in crystallinity
same,XRPD after wet granulation,[2]; Granulation solvent Water,Pattern A
same,purity decrease,[3],2.1%
same,thermodynamic stability based on water activity experiments,"[4]; 0, 0.2, 0.4, 0.6, 0.8 and 1.0 water activity",thermodynamically stable
same,water activity (a.w.) at which the pattern was obtained,[4]; 5° C.,≤ 0.8
same,water activity (a.w.) at which the pattern was obtained,[4]; 25° C.,≤ 0.8
same,water activity (a.w.) at which the pattern was obtained,[4]; 50° C.,≤ 1.0
same,degree of crystallinity after dry grinding (XRPD),[5],no obvious change in crystallinity
same,form change after dry grinding (XRPD),[5],No form change
same,purity decrease,"[6]; 25° C./92.5% RH in an open container, 4 weeks",0.9%
same,physical form after stress,"[6]; 25° C./92.5% RH open, 40° C./75% RH open and 60° C. closed container, four weeks",remained the same form
same,physical stability,"[6]; 25° C./92.5% RH open, 40° C./75% RH open and 60° C. closed container, over 4 weeks",physically stable
same,purity decrease,"[6]; 60° C. in a closed container, 4 weeks",0.9%
same,Bulk (XRPD),"[6]; 25° C./92.5% RH, open container, 1 week",No form change
same,"Bulk (HPLC) purity, 316 nm","[6]; 25° C./92.5% RH, open container, 1 week, listed as L-Tartaric acid cocrystal Pattern A, hydrate",99.2%
same,Bulk (XRPD),"[6]; 25° C./92.5% RH, open container, 4 weeks",No form change
same,"Bulk (HPLC) purity, 316 nm","[6]; 25° C./92.5% RH, open container, 4 weeks, listed as L-Tartaric acid cocrystal Pattern A, hydrate",98.5%
same,Bulk (XRPD),"[6]; 40° C./75% RH, open container, 1 week",No form change
same,"Bulk (HPLC) purity, 316 nm","[6]; 40° C./75% RH, open container, 1 week, listed as L-Tartaric acid cocrystal Pattern A, hydrate",98.9%
same,"Bulk (HPLC) purity, 316 nm",[6]; [18],97.3%
same,Bulk (XRPD),[6]; [18],No form change
same,Bulk (XRPD),"[6]; 60° C., closed container, 1 week",No form change
same,"Bulk (HPLC) purity, 316 nm","[6]; 60° C., closed container, 1 week, listed as L-Tartaric acid cocrystal Pattern A, hydrate",99.1%
same,"Bulk (HPLC) purity, 316 nm",[6]; [19],98.5%
same,Bulk (XRPD),[6]; [19],No form change
same,stability under stress conditions,"[6]; open container, 25° C. and 92.5% relative humidity and 40° C. and 75% RH, up to four weeks",stable
same,bulk stability relative to the phosphate salt,"[6]; various temperatures and relative humidities (BS1, BS2, BS3)",higher stability
same,XRPD after heating (VT-XRPD),[7],no form change
